Measurements taken from US12358921B2, “Antiviral heterocyclic compounds” (priority 2022, dated 2025).
pEC50: −log10 of the molar value.

Columns and labels:
hMPV A2 TN/94-49 = assay: HMPV antiviral assay Method 1 (LLC-MK2 cells, ATP-Lite); type: cell-based; conditions: hMPV A2 TN/94-49, LLC-MK2 cells
Protocol: In vitro HMPV antiviral activity was evaluated using the clinical isolate A2 strain TN 94-49 (obtained from Dr. John Williams, Vanderbilt University, Tennessee) and […] cells (ATCC #CCL-7), an immortalized kidney epithelial cell line from Macaca mulatta. Compounds were resuspended in dimethyl sulfoxide (DMSO) at 10 mM, serially diluted and added to a 384-well source plate. Subsequently, the compounds were diluted and transferred onto 384-well assay plates using the Echo-650 automated liquid handling system (Beckman Coulter, Indiana). The test compounds were assessed in duplicate at a top concentration of 2 μM followed by 2.5-fold serial dilutions to give a total of 10 concentration points. DMSO control wells were also included on the assay plates and were either infected or not, acting as positive and negative controls. A2 TN 94-49 virus infections were performed in-suspension with LLC-MK2 cells. The cells were washed twice with PBS and removed from the cell-culture flask with 0.25% trypsin-EDTA (Thermo Fisher Scientific, MA). The trypsin-EDTA was inactivated by resuspending in 2% fetal bovine serum (FBS) and OptiMEM (ThermoFisher Scientific, MA) containing 1% penicillin-streptomycin. Cells were pelleted by centrifuging for 5 minutes at 800 rpm, the supernatant was removed, and cells were re-suspended and washed in PBS plus 100 μg/mL CaCl2). This step was performed twice. Cells were then re-suspended in serum-free (SF)-OptiMEM containing 4 μg/mL TPCK-Trypsin (Sigma Aldrich, MO), 1% penicillin-streptomycin (ThermoFisher Scientific, MA) and 100 μg/mL CaCl2). Cells were counted and seeded at a density of 5,000 cells/well, 12.5 μL/well. Virus infections were done at a multiplicity of infection (MOI) of 0.005 with 12.5 μL added per well. Virus infections were performed in infection media which contained SF-OptiMEM, 100 μg/mL CaCl2) and 1% penicillin-streptomycin. HMPV viral stocks are suspended in infection media+5% glycerol, thus an equal volume of infection media+5% glycerol was added to uninfected wells to equalize the final % glycerol across all wells of the assay plate. The final concentration of TPCK-trypsin was 2 μg/mL. The assay plates were incubated at 37° C., 5% CO2 for 7 days. After 7 days incubation, 12.5 μL of ATP-Lite (PerkinElmer, MA) was added to each well and the raw luminescence values were determined using the Envision 2104 (Perkin Elmer, MA). The average of the raw luminescence values for the cells and virus only positive control wells was subtracted from all conditions tested and the percent cell health was determined by dividing these values by the average of the cells only negative control wells. EC50 values were then calculated by non-linear regression using a four-parameter curve logistic equation. The curve fit model employed was XLFit Dose Response One Site Model 200: y=(A+(B/(1+((x/C)^D)))), where A is the minimum y value, B is the maximum y value, C is the log EC50value, and D is the slope factor. Method 2: In Vitro HMPV Antiviral Activity was Evaluated Using the Clinical Isolate A2 Strain TN 94-49

[1] = system: HUMAN RSV-A (“LONG” STRAIN); assay: RSV-A assay (CPE, ATPlite) in Hep-2 cells; type: cell-based; conditions: human respiratory syncytial virus, 120 h, MOI 0.1, 5-day incubation
Method in brief: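 Hep-2 cells (8,000/well) given 2-fold serial compound dilutions in duplicate, then infected with RSV-A Long strain at MOI 0.1. After 5 days, virus-induced cytopathic effect quantified as cellular ATP by ATPlite luminescence, against virus-only and uninfected controls; EC50 reported in ranges.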

Row | SMILES | pEC50 (hMPV A2 TN/94-49) | pEC50 [1]
1 | COc1cc(C(=O)NC[C@](O)(c2cc3c(c(-c4ccc(C(F)(F)F)c(C)c4)n2)OC[C@]3(C)C(N)=O)C2CC2)cc2cn(C3CC3)nc12 [Example 55] | < 6.30 | > 6.70
2 | Cc1nc2ccc(C(=O)NC[C@@](O)(c3cccc(F)c3)c3cc4c(c(-c5ccc(F)c(Cl)c5Cl)n3)OC[C@]4(C)C(N)=O)cc2o1 [Example 283] | > 6.30 | > 6.70
3 | COc1cc(F)ccc1-c1nc([C@@](O)(CNC(=O)c2cc(OC)c3nn(C4CC4)cc3c2)C2CC2)cc2c1OC[C@]2(C)C(N)=O [Example 67] | < 6.30 | > 6.70
4 | C[C@]1(C(N)=O)COc2c1cc([C@@](O)(CNC(=O)c1cc(OC(F)F)c3nn(C4CC4)cc3c1)C1CC1)nc2-c1cc(F)c(F)cc1F [Example 6] | > 6.30 | > 6.70
5 | COc1cc(C(=O)NC[C@](O)(c2cc3c(c(-c4ccc(Cl)c(Cl)c4Cl)n2)OC[C@]3(C)C(N)=O)C2CC2)cc2cn(C3CC3)nc12 [Example 60] | > 6.30 | > 6.70
6 | COc1cc(C(=O)NC[C@](O)(c2cc3c(c(-c4cc(Cl)cc(C)c4F)n2)OC[C@]3(C)C(N)=O)C2CC2)cc2cn(C3CC3)nc12 [Example 47] | < 6.30 | > 6.70
7 | C[C@]1(C(N)=O)COc2c1cc([C@@](O)(CNC(=O)c1cc(OC3CC3)c3nn(C4CC4)cc3c1)c1ccccc1)nc2-c1ccc2c(c1Cl)OC(F)(F)O2 [Example 252] | > 6.30 | > 6.70
8 | COc1cc(C(=O)NC[C@@](O)(c2cc3c(c(-c4cc(F)c(F)c(F)c4Cl)n2)OC[C@]3(C)C(N)=O)C(F)(F)F)cc2cn(C3CC3)nc12 [Example 58] | < 6.30 | > 6.70
9 | COc1cc(C(=O)NC[C@@](O)(c2ccccc2)c2cc3c(c(-c4cccc(Cl)c4Cl)n2)OC[C@]3(C)C(N)=O)cc2cn(C(F)F)nc12 [Example 261] | > 6.30 | > 6.70
10 | COc1cc(C(=O)NC[C@](O)(c2cc3c(c(-c4cc(C(F)(F)F)ccc4C)n2)OC[C@]3(C)C(N)=O)C2CC2)cc2cn(C3CC3)nc12 [Example 53] | > 6.30 | > 6.70
11 | COc1cc(C(=O)NC[C@](O)(c2cc3c(c(-c4cccc(SC(F)(F)F)c4)n2)OC[C@]3(C)C(N)=O)C2CC2)cc2cn(C3CC3)nc12 [Example 36] | < 6.30 | > 6.70
12 | COc1cc(C(=O)NC[C@](O)(c2cc3c(c(-c4ccc5ccsc5c4)n2)OC[C@]3(C)C(N)=O)C2CC2)cc2cn(C3CC3)nc12 [Example 48] | < 6.30 | > 6.70
13 | C[C@]1(C(N)=O)COc2c1cc([C@@](O)(CNC(=O)c1ccc3nc(N)sc3c1)c1ccccc1)nc2-c1ccc2c(c1Cl)OC(F)(F)O2 [Example 256] | > 6.30 | > 6.70
14 | C[C@]1(C(N)=O)COc2c1cc([C@@](O)(CNC(=O)c1cc(OC3CC3)c3nn(C4CC4)cc3c1)C1CC1)nc2-c1cc(Cl)c(F)cc1F [Example 2] | > 6.30 | > 6.70
15 | COc1cc(C(=O)NC[C@@](O)(c2cccc(F)c2)c2cc3c(c(-c4ccc5c(c4Cl)OC(F)(F)O5)n2)OC[C@]3(C)C(N)=O)cc2cn(C3CC3)nc12 [Example 274] | > 6.30 | > 6.70
16 | COc1cc(C(=O)NC[C@@](O)(c2ccccc2)c2cc3c(c(-c4ccc5c(c4Cl)OC(F)(F)O5)n2)OC[C@]3(C)C(N)=O)cc2cn(C(F)F)nc12 [Example 253] | > 6.30 | > 6.70
17 | COc1cc(C(=O)NC[C@](O)(c2cc3c(c(-c4cc(C)cc(F)c4F)n2)OC[C@]3(C)C(N)=O)C2CC2)cc2cn(C3CC3)nc12 [Example 49] | < 6.30 | > 6.70

Results, then the molecule that gave them:

Row | pEC50 (hMPV A2 TN/94-49) | pEC50 [1] | SMILES
18 | > 6.30 | > 6.70 | COc1cc(C(=O)NC[C@](O)(c2cc3c(c(-c4cc(Cl)c(F)cc4F)n2)OC[C@]3(C)C(N)=O)c2ccccc2F)cc2cn(C3CC3)nc12 [Example 136]
19 | < 6.30 | > 6.70 | COc1cc(C(=O)NC[C@](O)(c2cc3c(c(-c4cc(Cl)c(F)cc4F)n2)OC[C@]3(C)C(N)=O)C2CC2)cc2cc(C(F)(F)F)cnc12 [Example 1]
20 | > 6.30 | > 6.70 | [2H]C([2H])([2H])c1nc2c(OC)cc(C(=O)NC[C@@](O)(c3ccsc3)c3cc4c(c(-c5cc(Cl)c(F)cc5F)n3)OC[C@]4(C)C(N)=O)cc2s1 [Example 176]
21 | > 6.30 | > 6.70 | COc1cc(C(=O)NC[C@](O)(c2cc3c(c(-c4cc(Cl)c(F)cc4F)n2)OC[C@]3(C)C(N)=O)c2cc(C)cs2)cc2cn(C3CC3)nc12 [Example 467]
22 | > 6.30 | > 6.70 | COc1cccc([C@](O)(CNC(=O)c2cc(OC)c3nc(C)c(Cl)cc3c2)c2cc3c(c(-c4cc(Cl)c(F)cc4F)n2)OC[C@]3(C)C(N)=O)c1 [Example 164]
23 | > 6.30 | > 6.70 | CCNC(=O)[C@@]1(C)COc2c1cc([C@@](O)(CNC(=O)c1cc(OC)c3nn(C4CC4)cc3c1)c1ccccc1)nc2-c1cc(Cl)c(F)cc1F [Example 142]
24 | < 6.30 | > 6.70 | COc1cc(C(=O)NC[C@](O)(c2cc3c(c(-c4cc(F)c(F)cc4F)n2)OC[C@]3(C)C(N)=O)C2CC2)cc2cc(C(F)(F)F)cnc12 [Example 46]
25 | > 6.30 | > 6.70 | COc1cc(C(=O)NC[C@@](O)(c2ccc(F)cc2)c2cc3c(c(-c4ccc(F)c(Cl)c4Cl)n2)OC[C@]3(C)C(N)=O)cc2cn(C(F)F)nc12 [Example 42]
26 | > 6.30 | > 6.70 | COc1cc(C(=O)NC[C@](O)(c2cc3c(c(-c4cc(Cl)c(F)cc4F)n2)OC[C@]3(C)C(N)=O)c2ccccc2F)cc2cn(C(F)F)nc12 [Example 138]
27 | > 6.30 | > 6.70 | COc1cc(C(=O)NC[C@@](O)(c2ccccc2)c2cc3c(c(-c4cc(Cl)c(F)cc4F)n2)OC[C@]3(C)C(N)=O)cc2cc(Cl)c(C)nc12 [Example 159]
28 | < 6.30 | < 6.70 | COc1cc(C(=O)NC[C@@](O)(c2cc3c(c(-c4cc(Cl)c(F)cc4F)n2)OC[C@]3(C)C(N)=O)c2cnn[nH]2)cc2cn(C3CC3)nc12 [Example 181]
29 | > 6.30 | > 6.70 | [2H]C([2H])([2H])c1nc2c(OC)cc(C(=O)NC[C@](O)(c3cc4c(c(-c5cc(F)c(F)cc5F)n3)OC[C@]4(C)C(N)=O)C3CC3)cc2cc1Br [Example 7]
30 | < 6.30 | > 6.70 | [2H]C([2H])([2H])c1cc2cc(C(=O)NC[C@](O)(c3cc4c(c(-c5ccc(F)c(Cl)c5)n3)OC[C@]4(C)C(N)=O)C(F)(F)F)cc(OC)c2nc1C [Example 20]
31 | > 6.30 | > 6.70 | [2H]c1c([2H])c([2H])c([C@](O)(CNC(=O)c2cc(OC)c3nn(C4CC4)cc3c2)c2cc3c(c(-c4cc(Cl)c(F)cc4F)n2)OC[C@]3(C)C(N)=O)c([2H])c1[2H] [Example 169]
32 | > 6.30 | > 6.70 | [2H]C([2H])([2H])c1nc2c(OC)cc(C(=O)NC[C@@](O)(c3ccc(F)cc3)c3cc4c(c(-c5ccc6c(c5Cl)OC(F)(F)O6)n3)OC[C@]4(C)C(N)=O)cc2s1 [Example 27]
33 | > 6.30 | > 6.70 | [2H]C([2H])([2H])c1nc2c(OC)cc(C(=O)NC[C@](O)(c3cc4c(c(-c5ccc(F)c(Cl)c5Cl)n3)OC[C@]4(C)C(N)=O)C3CC3)cc2cc1Br [Example 24]
34 | > 6.30 | > 6.70 | [2H]C([2H])([2H])c1nc2c(OC)cc(C(=O)NC[C@@](O)(c3ccccc3)c3cc4c(c(-c5ccc(F)c(Cl)c5Cl)n3)OC[C@]4(C)C(N)=O)cc2s1 [Example 273]
35 | > 6.30 | > 6.70 | [2H]C([2H])([2H])c1cc2cc(C(=O)NC[C@](O)(c3cc4c(c(-c5cc(F)c(F)cc5F)n3)OC[C@]4(C)C(N)=O)C3CC3)cc(OC)c2nc1C([2H])([2H])[2H] [Example 28]
36 | > 6.30 | > 6.70 | COc1cc(C(=O)NC[C@@](O)(c2cccc(F)c2)c2cc3c(c(-c4ccc(F)c(Cl)c4Cl)n2)OC[C@]3(C)C(N)=O)cc2oc(C)nc12 [Example 279]
